Test results published in US9458181B2, “Cathepsin cysteine protease inhibitors” (Merck Sharp & Dohme Corp., priority 2013, dated 2016).

How the values were obtained:
[1] = biological target: human cathepsin K (UniProt P43236); assay: Cathepsin K Assay (hrbCat K); type: biochemical; conditions: human cathepsin K 0.4 nM, Z-Leu-Arg-AMC 8 μM, pH 5.5, 15 min preincubation; read-out: hrbCat K IP
Method: Cathepsin K Assay (hrbCat K)
(§1) Serial dilutions (⅓) from 500 μM down to 0.025 μM of test compounds were prepared in dimethyl sulfoxide (DMSO). Then 0.5 μL of DMSO from each dilution were added to 18.75 μL of assay buffer (MES, 50 mM (pH 5.5); EDTA, 2.5 mM; DTT, 2.5 mM and 10% DMSO) containing human cathepsin K (0.4 nM) in assay buffer solution. The assay solutions were mixed for 5-10 seconds on a shaker plate and incubated for 15 minutes at room temperature. Z-Leu-Arg-AMC (8 μM) in 6.25 μL of assay buffer was added to the assay solutions. Hydrolysis of the coumarin leaving group (AMC) was followed by spectrofluorometry (Exλ=360 nm; Emλ=460 nm) for 30 minutes. Percent of inhibition were calculated by fitting experimental values to standard mathematical model for dose response curve.

[2] = biological target: T1, human cathepsin F (Homo sapiens, UniProt Q9UBX1); assay: Cathepsin F assay (hCat F); type: biochemical; conditions: human cathepsin F 10 nM, Z-Phe-Arg-AMC 8 μM, pH 5.5, 15 min preincubation; read-out: hCat F IP
T1 sequence (Q9UBX1 271-484): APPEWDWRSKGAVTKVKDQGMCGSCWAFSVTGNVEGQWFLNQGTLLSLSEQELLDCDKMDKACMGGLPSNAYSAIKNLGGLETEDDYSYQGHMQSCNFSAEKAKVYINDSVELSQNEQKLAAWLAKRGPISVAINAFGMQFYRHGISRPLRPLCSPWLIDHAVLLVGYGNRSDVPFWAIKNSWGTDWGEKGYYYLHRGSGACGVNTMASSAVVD
Method: Cathepsin F assay (hCat F)
as §1, with “F (10” for “K (0.4”, “Z-Phe-Arg-AMC” for “Z-Leu-Arg-AMC”, “(Exp, =360” for “(Exλ=360”, “EmX=460” for “Emλ=460”, “20” for “30”

| SMILES | IC50 [1] | IC50 [2] |
| --- | --- | --- |
| N#CC1(NC(=O)[C@@H]2CCCC[C@H]2c2oc(-c3ccc(F)c(F)c3)nc2-c2ccc(N3CCS(=O)(=O)CC3)cc2)CC1 [Example 1, (1R,2R)—N-(1-Cyanocyclopropyl)-2-(2-(3,4-difluorophenyl)-4-(4-(1,1-dioxidothiomorpholino)phenyl)oxazol-5-yl)cyclohexanecarboxamide] | 0.39 nM | 573 nM |
| N#CC1(NC(=O)[C@@H]2CCCC[C@H]2c2oc(C(F)(F)C(F)(F)F)nc2-c2ccc(N3CCS(=O)(=O)CC3)cc2)CC1 [Example 3, (1R,2R)—N-(1-Cyanocyclopropyl)-2-(4-(4-(1,1-dioxidothiomorpholino)phenyl)-2-(perfluoroethyl)oxazol-5-yl)cyclohexanecarboxamide] | 1.02 nM | 666 nM |
| N#CC1(NC(=O)[C@@H]2CCCC[C@H]2c2oc(N3CCC(F)(F)CC3)nc2-c2ccc(N3CCS(=O)(=O)CC3)cc2)CC1 [Example 4, (1R,2R)—N-(1-Cyanocyclopropyl)-2-(2-(4,4-difluoropiperidin-1-yl)-4-(4-(1,1-dioxidothiomorpholino)phenyl)oxazol-5-yl)cyclohexanecarboxamide] | 6.37 nM | ≥ 10000 nM |
| N#CC1(NC(=O)[C@@H]2CCCC[C@H]2c2oc(-c3cccc(Cl)c3)nc2-c2ccc(N3CCS(=O)(=O)CC3)cc2)CC1 [Example 5, (1R,2R)-2-(2-(3-Chlorophenyl)-4-(4-thiomorpholino-1,1-dioxide-phenyl)oxazol-5-yl)-N-(1-cyanocyclopropyl)cyclohexanecarboxamide] | 0.56 nM | 507 nM |
| N#CC1(NC(=O)[C@@H]2CCCC[C@H]2c2oc(-c3cccc(Cl)c3F)nc2-c2ccc(N3CCS(=O)(=O)CC3)cc2)CC1 [Example 6, (1R,2R)-2-(2-(3-chloro-2-fluorophenyl)-4-(4-(1,1-dioxidothiomorpholino)phenyl)oxazol-5-yl)-N-(1-cyanocyclopropyl)cyclohexanecarboxamide] | 0.48 nM | 631 nM |
| N#CC1(NC(=O)[C@@H]2CCCC[C@H]2c2oc(-c3ccc(F)cc3)nc2-c2ccc(N3CCS(=O)(=O)CC3)cc2)CC1 [Example 7, (1R,2R)—N-(1-Cyanocyclopropyl)-2-{4-[4-(1,1-dioxo-1λ^6-thiomorpholin-4-yl)phenyl]-2-(4-fluorophenyl)-1,3-oxazol-5-yl}cyclohexanecarboxamide] | 1.49 nM | 840 nM |
| CC(C)(C)c1nc(-c2ccc(N3CCS(=O)(=O)CC3)cc2)c([C@@H]2CCCC[C@H]2C(=O)NC2(C#N)CC2)s1 [Example 10, (1R,2R)-2-(2-(tert-butyl)-4-(4-(1,1-dioxidothiomorpholino)phenyl)thiazol-5-yl)-N-(1-cyanocyclopropyl)cyclohexanecarboxamide] | 1.65 nM | 1440 nM |
| CC(C)(C)c1nc(-c2ccc(N3CCS(=O)(=O)CC3)cc2)c([C@@H]2CCCC[C@H]2C(=O)NC2(C#N)CC2)o1 [Example 11, (1R,2R)-2-(2-(tert-butyl)-4-(4-(1,1-dioxidothiomorpholino)phenyl)oxazol-5-yl)-N-(1-cyanocyclopropyl) cyclohexanecarboxamide] | 0.69 nM | 681 nM |
| Cc1nc(-c2ccc(N3CCS(=O)(=O)CC3)cc2)c([C@@H]2CCC(F)(F)C[C@H]2C(=O)NCC#N)o1 [Example 12, (1R,2R)-N-(cyanomethyl)-2-(4-(4-(1,1-dioxidothiomorpholino)phenyl)-2-methyloxazol-5-yl)-5,5-difluorocyclohexane-carboxamide] | 0.29 nM | 327 nM |
| N#CC1(NC(=O)[C@@H]2CCCC[C@H]2c2oc(C(F)(F)F)nc2-c2ccc(N3CCS(=O)(=O)CC3)cc2)CC1 [Example 13, (1R,2R)-N-(1-cyanocyclopropyl)-2-(4-(4-(1,1-dioxidothiomorpholino)phenyl)-2-(trifluoromethyl)oxazol-5-yl)cyclohexanecarboxamide] | 0.46 nM | 628 nM |
| Cc1nc(-c2ccc(N3CCS(=O)(=O)CC3)cc2)c([C@@H]2CCCC[C@H]2C(=O)NC2(C#N)CC2)o1 [Example 14, (1R,2R)-N-(1-cyanocyclopropyl)-2-(4-(4-(1,1-dioxidothiomorpholino)phenyl)-2-methyloxazol-5-yl)cyclohexanecarboxamide] | 1.08 nM | 1330 nM |

Results, then the molecule that gave them:

| IC50 [1] | IC50 [2] | SMILES |
| --- | --- | --- |
| 1.06 nM | 446 nM | N#CC(CC(F)(F)F)NC(=O)[C@@H]1CC(F)(F)CC[C@H]1c1oc(C(F)(F)C(F)(F)F)nc1-c1ccc(C(=O)N2CCOCC2)cc1 (single isomer, unassigned) [Example 142, (1R,2R)-N-((R or S)-1-cyano-3,3,3-trifluoropropyl)-5,5 - difluoro-2-(4-(4-(morpholine-4-carbonyl)phenyl)-2-(perfluoroethyl)oxazol-5-yl)cyclohexanecarboxamide] |
| 0.54 nM | 14 nM | N#CC(CC(F)(F)F)NC(=O)[C@@H]1CC(F)(F)CC[C@H]1c1oc(C(F)(F)C(F)(F)F)nc1-c1ccc(C(=O)N2CCOCC2)cc1 (single isomer, unassigned) [Example 143, (1R,2R)-N-((S or R)-1-cyano-3,3,3-trifluoropropyl)-5,5-difluoro-2-(4-(4-(morpholine-4-carbonyl)phenyl)-2-(perfluoroethyl)oxazol-5-yl)cyclohexanecarboxamide] |
| 1520 nM | ≥ 10000 nM | N#CC(NC(=O)[C@@H]1CC(F)(F)CC[C@H]1c1oc(C(F)(F)C(F)(F)F)nc1-c1ccc(C(=O)N2CCOCC2)cc1)C1CCOCC1 (single isomer, unassigned) [Example 144, (1R,2R)-N-((R or S)-cyano(tetrahydro-2H-pyran-4-yl)methyl)-5,5-difluoro-2-(4-(4-(morpholine-4-carbonyl)phenyl)-2-(perfluoroethyl)oxazol-5-yl)cyclohcxanccarboxamide] |
| 3 nM | 1090 nM | N#CC(NC(=O)[C@@H]1CC(F)(F)CC[C@H]1c1oc(C(F)(F)C(F)(F)F)nc1-c1ccc(C(=O)N2CCOCC2)cc1)C1CCOCC1 (single isomer, unassigned) [Example 145, (1R,2R)-N-((S or R)-cyano(tetrahydro-2H-pyran-4-yl)methyl)-5,5-difluoro-2-(4-(4-(morpholine-4-carbonyl)phenyl)-2-(perfluoroethyl)oxazol-5-yl)cyclohcxanecarboxamide] |
| 9740 nM | ≥ 10000 nM | CC(C)(O)C(C#N)NC(=O)[C@@H]1CCCC[C@H]1c1oc(-c2ccc(F)cc2)nc1-c1ccc(N2CCS(=O)(=O)CC2)cc1 (single isomer, unassigned) [Example 158, (1R,2R)-N-((R or S)-1-cyano-2-hydroxy-2-methylpropyl)-2-(4-(4-(1,1-dioxidothiomorpholino)phenyl)-2-(4-fluorophenyl)oxazol-5-yl)cyclohexanecarboxamide] |
| 43.2 nM | 6860 nM | CC(C)(O)C(C#N)NC(=O)[C@@H]1CCCC[C@H]1c1oc(-c2ccc(F)cc2)nc1-c1ccc(N2CCS(=O)(=O)CC2)cc1 (single isomer, unassigned) [Example 159, (1R,2R)-N-((S or R)-1-cyano-2-hydroxy-2-methylpropyl)-2-(4-(4-(1,1-dioxidothiomorpholino)phenyl)-2-(4-fluorophenyl)oxazol-5-yl)cyclohexanecarboxamide] |
| 1.8 nM | 640 nM | N#CC1(NC(=O)[C@@H]2CCCC[C@H]2c2oc(CC(F)(F)F)nc2-c2ccc(N3CCS(=O)(=O)CC3)cc2)CC1 [Example 15, (1R,2R)-N-(1-cyanocyclopropyl)-2-(4-(4-(1,1-dioxidothiomorpholino)phenyl)-2-(2,2,2-trifluoroethyl)oxazol-5-yl)cyclohexanecarboxamide] |
| 0.61 nM | 209 nM | N#CC1(NC(=O)[C@@H]2CC(F)(F)CC[C@H]2c2oc(CC(F)(F)F)nc2-c2ccc(N3CCS(=O)(=O)CC3)cc2)CC1 [Example 16, (1R,2R)-N-(1-cyanocyclopropyl)-2-(4-(4-(1,1-dioxidothiomorpholino)phenyl)-2-(2,2,2-trifluoroethyl)oxazol-5-yl)-5,5-difluorocyclohexane-carboxamide] |
| 0.48 nM | 178 nM | Cc1nc(-c2ccc(N3CCS(=O)(=O)CC3)cc2)c([C@@H]2CCC(F)(F)C[C@H]2C(=O)NC2(C#N)CC2)o1 [Example 18, (1R,2R)-N-(1-cyanocyclopropyl)-2-(4-(4-(1,1-dioxidothiomorpholino)phenyl)-2-methyloxazol-5-yl)-5,5-difluorocyclohexane-carboxamide] |
